Experimental data: ChEMBL document CHEMBL4340547, “Synthesis and SAR development of quinoline analogs as novel P2X7 receptor antagonists” (Bioorg Med Chem Lett, 2019)

Legend:
P2X purinoceptor 7 [1] = target: T1, P2X purinoceptor 7 (Homo sapiens, UniProt Q99572); experiment: Antagonist activity at human P2X7 receptor expressed in HEK293 cells assessed as inhibition of BzATP-induced YO PRO dye uptake preincubated for 20 mins followed by YO PRO dye and BzATP addition measured after 30 mins by fluorescence assay; assay type: cell-based
T1 sequence (Q99572 whole entry): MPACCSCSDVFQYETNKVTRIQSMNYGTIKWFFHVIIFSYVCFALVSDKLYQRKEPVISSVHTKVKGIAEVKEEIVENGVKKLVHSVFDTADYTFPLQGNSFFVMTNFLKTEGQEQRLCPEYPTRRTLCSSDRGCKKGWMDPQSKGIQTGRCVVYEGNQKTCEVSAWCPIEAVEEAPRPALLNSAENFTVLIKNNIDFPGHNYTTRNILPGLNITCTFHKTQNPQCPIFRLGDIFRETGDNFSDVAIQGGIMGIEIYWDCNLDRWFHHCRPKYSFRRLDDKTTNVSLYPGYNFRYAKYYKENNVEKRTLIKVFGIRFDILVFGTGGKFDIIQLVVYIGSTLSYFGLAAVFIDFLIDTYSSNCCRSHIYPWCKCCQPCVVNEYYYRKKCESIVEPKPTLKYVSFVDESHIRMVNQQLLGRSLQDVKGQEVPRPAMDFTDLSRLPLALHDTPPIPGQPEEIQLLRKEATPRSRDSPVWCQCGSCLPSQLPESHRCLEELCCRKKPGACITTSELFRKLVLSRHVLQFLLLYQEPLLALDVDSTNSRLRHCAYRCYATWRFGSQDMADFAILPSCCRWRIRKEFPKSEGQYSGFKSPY

P2X purinoceptor 7 [2] = target: T1, P2X purinoceptor 7; experiment: Antagonist activity at P2X7R in LPS-stimulated human THP1 cells assessed as inhibition of BzATP-induced IL-1beta release preincubated for 30 mins followed by BzATP stimulation and measured after 30 mins by sandwich ELISA
[3] = Intrinsic clearance in human liver microsomes; assay type: ADME, Microsome; conditions: read-out: CLH
[4] = Intrinsic clearance in mouse liver microsomes; assay type: ADME, Microsome; conditions: read-out: CLH
[5] = Intrinsic clearance in rat liver microsomes; assay type: ADME, Microsome; conditions: read-out: CLH
MDR [6] = experiment: Apparent permeability across apical to basolateral side in MDCK cells expressing MDR; assay type: ADME, cell-based, Canis lupus familiaris; conditions: dog, MDCK-MDR1
MDR [7] = experiment: Efflux ratio of apparent permeability in MDCK cells expressing MDR; assay type: ADME, cell-based, Canis lupus familiaris; conditions: dog, MDCK-MDR1
P2X purinoceptor 7 [8] = target: T2, P2X purinoceptor 7 (Mus musculus, UniProt Q9Z1M0); experiment: Antagonist activity at mouse P2X7 receptor assessed as inhibition of BzATP-induced YO PRO dye uptake preincubated for 20 mins followed by YO PRO dye and BzATP addition measured after 30 mins by fluorescence assay
T2 sequence (Q9Z1M0 whole entry): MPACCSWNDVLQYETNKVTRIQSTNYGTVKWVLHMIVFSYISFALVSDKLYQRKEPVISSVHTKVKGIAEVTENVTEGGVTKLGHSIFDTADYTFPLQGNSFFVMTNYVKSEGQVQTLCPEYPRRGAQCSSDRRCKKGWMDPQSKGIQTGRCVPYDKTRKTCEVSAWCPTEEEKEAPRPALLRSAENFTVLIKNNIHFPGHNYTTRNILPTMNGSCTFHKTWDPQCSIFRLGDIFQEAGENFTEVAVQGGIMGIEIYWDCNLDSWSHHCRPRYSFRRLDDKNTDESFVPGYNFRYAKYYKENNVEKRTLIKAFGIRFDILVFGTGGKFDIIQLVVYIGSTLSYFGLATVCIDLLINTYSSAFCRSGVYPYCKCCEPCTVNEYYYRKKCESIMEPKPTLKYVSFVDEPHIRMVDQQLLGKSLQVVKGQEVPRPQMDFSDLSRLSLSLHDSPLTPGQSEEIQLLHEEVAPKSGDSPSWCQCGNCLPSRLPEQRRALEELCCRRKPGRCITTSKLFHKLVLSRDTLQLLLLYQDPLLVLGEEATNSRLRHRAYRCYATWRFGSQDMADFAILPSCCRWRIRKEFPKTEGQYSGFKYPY

P2X purinoceptor 7 [9] = target: T3, P2X purinoceptor 7 (Rattus norvegicus, UniProt Q64663); experiment: Antagonist activity at rat P2X7 receptor assessed as inhibition of BzATP-induced YO PRO dye uptake preincubated for 20 mins followed by YO PRO dye and BzATP addition measured after 30 mins by fluorescence assay
T3 sequence (Q64663 whole entry): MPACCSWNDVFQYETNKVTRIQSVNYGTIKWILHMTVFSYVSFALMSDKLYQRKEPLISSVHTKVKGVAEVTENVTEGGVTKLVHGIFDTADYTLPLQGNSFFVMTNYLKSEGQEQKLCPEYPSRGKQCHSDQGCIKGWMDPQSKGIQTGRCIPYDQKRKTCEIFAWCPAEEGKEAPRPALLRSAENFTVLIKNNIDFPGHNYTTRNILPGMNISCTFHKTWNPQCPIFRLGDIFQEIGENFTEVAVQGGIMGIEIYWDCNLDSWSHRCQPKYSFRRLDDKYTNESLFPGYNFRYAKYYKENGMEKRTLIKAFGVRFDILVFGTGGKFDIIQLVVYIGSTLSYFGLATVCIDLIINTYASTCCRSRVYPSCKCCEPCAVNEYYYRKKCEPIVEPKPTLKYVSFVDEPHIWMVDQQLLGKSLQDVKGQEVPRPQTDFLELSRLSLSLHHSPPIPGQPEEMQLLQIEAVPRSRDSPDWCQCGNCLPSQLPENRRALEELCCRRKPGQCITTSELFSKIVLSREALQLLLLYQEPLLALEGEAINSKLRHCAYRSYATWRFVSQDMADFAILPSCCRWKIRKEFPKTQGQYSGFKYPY

IC50 (P2X purinoceptor 7 [1]) [nM]	IC50 (P2X purinoceptor 7 [2]) [nM]	microsomal CLint [3] [µL/min/mg]	microsomal CLint [4] [µL/min/mg]	microsomal CLint [5] [µL/min/mg]	Papp A→B (MDR [6]) [×10⁻⁶ cm/s]	efflux ratio (MDR [7])	IC50 (P2X purinoceptor 7 [8]) [nM]	IC50 (P2X purinoceptor 7 [9]) [nM]	SMILES
31	75	–	–	–	–	–	–	–	CC1(C)OB(C2=CCCC2)OC1(C)C
89	180	–	–	–	–	–	–	–	COCCNc1ccc2c(C(=O)NCC3CCC(F)(F)CC3)c(Cl)ccc2n1
230	220	–	–	–	–	–	–	–	O=C(NCC1CCC(F)(F)CC1)c1c(Cl)ccc2ncccc12
4.9	118	41	102	102	16.4	1.8	2000	–	O=C(NCC1CCCC(F)(F)C1)c1c(Cl)ccc2nc(N3CC[C@@H](F)C3)ccc12 (stereo partly drawn)
4.5	24.8	21	65	23	8.9	4.3	1400	640	C[C@H]1CCC[C@@](O)(CNC(=O)c2c(Cl)ccc3nc(N4CC[C@@H](F)C4)ccc23)C1
25	140	–	–	–	–	–	–	–	COCCOc1ccc2c(C(=O)NCC3CCC(F)(F)CC3)c(Cl)ccc2n1
37	108 to 110	87	49	57	31.8	1.2	–	–	O=C(NCC1CCC(F)(F)CC1)c1c(Cl)ccc2nc(N3CCCC3)ccc12
36	90	–	–	–	–	–	–	–	O=C(NCC1CCC(F)(F)CC1)c1c(Cl)ccc2nc(C3=CCCC3)ccc12
27	40	45	50	22	6.2	7.2	–	–	CN(C)[C@@H]1CCN(c2ccc3c(C(=O)NCC4CCC(F)(F)CC4)c(Cl)ccc3n2)C1
94	160	–	–	–	–	–	–	–	O=C(NCC1CCC(F)(F)CC1)c1c(Cl)ccc2nc(C3CCCC3)ccc12
